Source: BindingDB's records for doi:10.1016/j.bmcl.2011.11.051 (The Ohio State University, 2012)
pIC50: −log10 of the molar value.

Each molecule was assayed against Neuronal acetylcholine receptor subunit alpha-4/beta-2 (Homo sapiens, UniProt P43681+P17787) (assay: Antagonist activity at human nAChR alpha4/beta2 receptor expressed in HEK ts201 cells assessed as calcium accumulation by fluorescence analysis).
Neuronal acetylcholine receptor subunit alpha-4/beta-2, sequence (P43681 whole entry): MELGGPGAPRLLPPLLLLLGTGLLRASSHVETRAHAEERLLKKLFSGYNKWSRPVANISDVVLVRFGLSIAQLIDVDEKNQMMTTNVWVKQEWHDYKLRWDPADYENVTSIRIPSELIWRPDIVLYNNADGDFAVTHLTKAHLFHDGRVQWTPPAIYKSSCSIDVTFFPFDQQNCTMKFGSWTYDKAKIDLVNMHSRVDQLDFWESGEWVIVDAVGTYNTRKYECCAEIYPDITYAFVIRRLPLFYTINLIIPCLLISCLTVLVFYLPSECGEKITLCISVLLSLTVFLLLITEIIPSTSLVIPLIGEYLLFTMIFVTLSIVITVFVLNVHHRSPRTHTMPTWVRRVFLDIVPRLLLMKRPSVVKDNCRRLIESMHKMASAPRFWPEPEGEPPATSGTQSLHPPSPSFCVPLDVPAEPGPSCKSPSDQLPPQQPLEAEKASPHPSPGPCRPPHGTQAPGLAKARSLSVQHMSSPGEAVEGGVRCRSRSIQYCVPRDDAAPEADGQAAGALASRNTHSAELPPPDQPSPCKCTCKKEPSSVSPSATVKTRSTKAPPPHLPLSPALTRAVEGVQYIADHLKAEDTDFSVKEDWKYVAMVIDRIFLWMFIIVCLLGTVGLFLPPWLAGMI
Neuronal acetylcholine receptor subunit alpha-4/beta-2, sequence (P17787 whole entry): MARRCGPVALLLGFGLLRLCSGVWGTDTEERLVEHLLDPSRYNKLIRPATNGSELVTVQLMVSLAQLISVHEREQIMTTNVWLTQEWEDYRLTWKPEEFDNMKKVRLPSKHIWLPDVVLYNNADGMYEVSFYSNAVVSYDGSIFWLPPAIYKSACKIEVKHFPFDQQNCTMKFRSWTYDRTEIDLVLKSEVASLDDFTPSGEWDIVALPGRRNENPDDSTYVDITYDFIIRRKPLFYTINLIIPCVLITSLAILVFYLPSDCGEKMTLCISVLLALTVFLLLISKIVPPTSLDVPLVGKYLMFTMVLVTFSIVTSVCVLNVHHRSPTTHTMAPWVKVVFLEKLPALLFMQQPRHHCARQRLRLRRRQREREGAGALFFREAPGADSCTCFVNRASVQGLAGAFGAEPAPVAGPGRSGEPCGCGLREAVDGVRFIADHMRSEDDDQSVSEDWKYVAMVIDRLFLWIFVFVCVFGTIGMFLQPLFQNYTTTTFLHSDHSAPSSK

`O=C(OCC1CCCN(CCCc2ccccc2)C1)c1ccccc1-n1c(O)cc(CCc2ccccc2)c1O` (stereo not given) and `O=C(OCC1CCCN(CCc2ccccc2)C1)c1ccccc1-n1c(O)cc(Cc2ccccc2)c1O` (stereo not given) are within 0.2 log units of each other in pIC50: 5.29 for the first, 5.35 for the second.

`O=C(OCC1=CCCN(CCCc2ccccc2)C1)c1ccccc1-n1c(O)cc(Cc2ccccc2)c1O` and `CCN1CCCC(COC(=O)c2ccccc2-n2c(O)cc(Cc3ccccc3)c2O)C1` (stereo not given) are within 0.2 log units of each other in pIC50: 5.29 for the first, 5.35 for the second.

`Cc1cc(O)n(-c2ccccc2C(=O)OC[C@@H]2CCCN(CCCc3ccccc3)C2)c1O` gave a pIC50 of 5.05.
